{"source": "ChEMBL document CHEMBL1147127", "about": "“Halogenated cyclic peptides isolated from the sponge Corticium sp” (J Nat Prod, 2007)", "system": "HCT-116", "test": "Cytotoxicity against HCT116 cells", "type": "cell-based", "details": "human; call rule not given here"}
{"smiles": "Cn1c(C(=O)NCC(=O)N[C@H]2CNC(=O)[C@@H](Cc3c[nH]c4ccc(Br)cc34)NC(=O)[C@@H](O)CNC(=O)[C@@H](CC(N)=O)NC2=O)cc(Cl)c1Cl", "note": "[CYCLOCINAMIDE B]", "values": [{"measurement": "Activity", "value": "Not Active"}]}
